US8586743B2, “Labeling reagents and methods of their use” (Life Technologies Corporation, priority 2007, dated 2013)

Experiments:
[1] = buffer, pH 8.6
Method: (§1) Samples were incubated at room temperature in the indicated solution.
(§2) 2-(6-amino-3-iminio-4,5-disulfonato-3H-xanthen-9-yl)benzoate, comprising an SDP ester was prepared and compared to commercially available 2-(6-amino-3-iminio-4,5-disulfonato-3H-xanthen-9-yl)benzoate comprising a succinimidyl ester (SE) and 2-(6-amino-3-iminio-4,5-disulfonato-3H-xanthen-9-yl)benzoate comprising a TFP for hydrolytic stability in 25 mM Pi buffer pH 8.6.

[2] = Hydrolysis half-life by HPLC (percent hydrolysis) at room temperature
Method: as §1, §2

[3] = phosphate buffer with imidazole, pH 8.6

SMILES | half-life (hydrolytic stability) [1] | half-life ([2]; DMSO) | half-life ([2]; HEPES buffer, pH 8.2) | half-life ([2]; Tris buffer with NaN3, pH 8.6) | half-life ([2]; Tris buffer, pH 7) | half-life ([2]; Tris buffer, pH 8.6) | half-life ([2]; borate buffer, pH 8.6) | half-life [2, 3] | half-life ([2]; phosphate buffer, pH 7.2) | half-life ([2]; phosphate buffer, pH 8.6) | half-life ([2]; water)
N=c1ccc2c(-c3ccc(C(=O)Oc4c(Cl)cc(S(=O)(=O)O)cc4Cl)cc3C(=O)O)c3ccc(N)c(S(=O)(=O)O)c3oc-2c1S(=O)(=O)O [Compound 102] | 28 h | 384 h | 159 h | 1.58 h | 1020 h | 77 h | 3.5 h | 0.633 h | 245 h | 28 h | 504 h
N=c1ccc2c(-c3cc(C(=O)Oc4c(Cl)cc(S(=O)(=O)O)cc4Cl)ccc3C(=O)O)c3ccc(N)c(S(=O)(=O)O)c3oc-2c1S(=O)(=O)O [Compound 104] |  |  |  |  |  |  |  |  |  | 17 h | 
CC1(C)C(/C=C/C=C/C=C2\N(CCCS(=O)(=O)O)c3ccc(S(=O)(=O)[O-])cc3C2(C)CCCCCC(=O)Oc2c(Cl)cc(S(=O)(=O)O)cc2Cl)=[N+](CCCS(=O)(=O)O)c2ccc(S(=O)(=O)O)cc21 (stereo not shown) [Compound 114] |  |  |  |  |  |  |  |  |  | 1.7 h | 
N=c1ccc2c(-c3ccc(C(=O)Oc4c(F)c(F)cc(F)c4F)cc3C(=O)O)c3ccc(N)c(S(=O)(=O)O)c3oc-2c1S(=O)(=O)O [Compound 120, reference compound] |  |  | 6.5 h | < 0.0167 h | 13.9 h | 2.32 h | < 0.0833 h | < 0.0333 h | 2.88 h | 1.3 h | 
CC1(C)C(/C=C/C=C/C=C2\N(CCCS(=O)(=O)O)c3ccc(S(=O)(=O)[O-])cc3C2(C)CCCCCC(=O)ON2C(=O)CCC2=O)=[N+](CCCS(=O)(=O)O)c2ccc(S(=O)(=O)O)cc21 (stereo not shown) [Compound 121, reference compound] |  |  |  |  |  |  |  |  |  | 1.75 h | 
